US12357632B2, “Methods of treating cholangiocarcinoma” (QED Therapeutics, Inc., priority 2019, dated 2025)

System: advanced or metastatic cholangiocarcinoma with FGFR genetic alterations
Assay: Phase II study of oral BGJ398 in advanced or metastatic cholangiocarcinoma, Patient 5010004 (RECIST v1.1)
Format: in vivo, human
Protocol: This is a multi-center, open label, single arm phase II study evaluating BGJ398 anti-tumor activity in advanced or metastatic cholangiocarcinoma patients with FGFR genetic alterations. 125 mg of oral, monotherapy BGJ398 is administered once daily for the first 3 weeks (21 days) of each 28-day cycle. The starting dose of 125 mg may be reduced to 100 mg, 75 mg, or 50 mg. The treatment period begins on Cycle 1, Day 1, and continues until disease progression, unacceptable toxicity, withdrawal of informed consent, or death. Patients are evaluated for tumor response radiographically every 8 weeks until disease progression or discontinuation from study using RECIST v1.1 criteria.
Adult patients with histologically or cytologically confirmed advanced or metastatic cholangiocarcinoma with FGFR2 gene fusions or translocations or other FGFR genetic alteration who have evidence of radiologic progression following a cisplatin- and gemcitabine-containing regimen for advanced disease or a gemcitabine-containing regimen for those who are considered intolerant to cisplatin are enrolled. Up to approximately 160 adult patients over age 18, both male and female are enrolled. Three cohorts of patients comprise the study population: • Cohort 1: ˜120 patients, 108 with FGFR2 gene fusions or translocations and 12 with other FGFR genetic alterations. • Cohort 2: ˜20 patients with FGFR genetic alterations other than FGFR2 gene fusions or translocations. • Cohort 3: Up to ˜20 patients with FGFR2 gene fusions or translocations who have received a prior FGFR inhibitor. Main Inclusion Criteria
Tumor response according to RECIST v1.1, and survival.
During treatment with infigratinib, the patient's response was determined by follow-up assessments conducted by a local investigator per RECIST v1.1.

Q: Which “New Lesion” value (Patient 5010004, Study Day 54) does the source give for `CCN1CCN(c2ccc(Nc3cc(N(C)C(=O)Nc4c(Cl)c(OC)cc(OC)c4Cl)ncn3)cc2)CC1` [Infigratinib, 3-(2,6-dichloro-3,5-dimethoxyphenyl)-1-{6-[4-(4-ethyl-1-piperazin-1-yl)phenylamino]-pyrimidinyl-4-yl}-1-methylurea] here?
A: No

Q: And the “Non-Target Lesion Response” value (Patient 5010004, Study Day 54)?
A: Non-CR^1/Non-PD^2

Q: What about the “Overall Response” value (Patient 5010004, Study Day 54) of the same compound?
A: Stable disease

Q: And the “Target Lesion % Change from Baseline” value (Patient 5010004, Study Day 54)?
A: 18.33%

Q: And the “New Lesion” value (Patient 5010004, Study Day 83)?
A: No

Q: And the “Non-Target Lesion Response” value (Patient 5010004, Study Day 83)?
A: Non-CR/Non-PD

Q: And the “Overall Response” value (Patient 5010004, Study Day 83)?
A: Stable disease

Q: What about the “Target Lesion % Change from Baseline” value (Patient 5010004, Study Day 83) of the same compound?
A: 16.33%

Q: What about the “New Lesion” value (Patient 5010004, Study Day 110) of the same compound?
A: No

Q: What about the “Non-Target Lesion Response” value (Patient 5010004, Study Day 110) of the same compound?
A: Non-CR/Non-PD

Q: What about the “Overall Response” value (Patient 5010004, Study Day 110) of the same compound?
A: Stable disease

Q: And the “Target Lesion % Change from Baseline” value (Patient 5010004, Study Day 110)?
A: 16.33%

Q: And the “New Lesion” value (Patient 5010004, Study Day 153)?
A: No

Q: And the “Non-Target Lesion Response” value (Patient 5010004, Study Day 153)?
A: Progressive

Q: And the “Overall Response” value (Patient 5010004, Study Day 153)?
A: Progressive

Q: And the “Target Lesion % Change from Baseline” value (Patient 5010004, Study Day 153)?
A: 31.63%

Q: What about the “duration of stable disease” value (Patient 5010004, first 3 follow-up assessments, local investigator, RECIST v1.1) of the same compound?
A: at least 4 months

Q: And the “time to discontinuation for progressive disease” value (Patient 5010004, study treatment)?
A: approximately 5 months
